The values below come from patent publication US20220340597A1, “HEXAHYDRO-1H-PYRAZINO[1,2-A]PYRAZINE COMPOUNDS FOR THE TREATMENT OF AUTOIMMUNE DISEASE” (Hoffmann-La Roche Inc., priority 2019, published 2022).

In one series the target is T1, human TLR9 (Homo sapiens, UniProt Q9NR96).
T1 construct: host or cells: HEK293 (HEK-Blue hTLR9)
T1 sequence (Q9NR96 26-1032): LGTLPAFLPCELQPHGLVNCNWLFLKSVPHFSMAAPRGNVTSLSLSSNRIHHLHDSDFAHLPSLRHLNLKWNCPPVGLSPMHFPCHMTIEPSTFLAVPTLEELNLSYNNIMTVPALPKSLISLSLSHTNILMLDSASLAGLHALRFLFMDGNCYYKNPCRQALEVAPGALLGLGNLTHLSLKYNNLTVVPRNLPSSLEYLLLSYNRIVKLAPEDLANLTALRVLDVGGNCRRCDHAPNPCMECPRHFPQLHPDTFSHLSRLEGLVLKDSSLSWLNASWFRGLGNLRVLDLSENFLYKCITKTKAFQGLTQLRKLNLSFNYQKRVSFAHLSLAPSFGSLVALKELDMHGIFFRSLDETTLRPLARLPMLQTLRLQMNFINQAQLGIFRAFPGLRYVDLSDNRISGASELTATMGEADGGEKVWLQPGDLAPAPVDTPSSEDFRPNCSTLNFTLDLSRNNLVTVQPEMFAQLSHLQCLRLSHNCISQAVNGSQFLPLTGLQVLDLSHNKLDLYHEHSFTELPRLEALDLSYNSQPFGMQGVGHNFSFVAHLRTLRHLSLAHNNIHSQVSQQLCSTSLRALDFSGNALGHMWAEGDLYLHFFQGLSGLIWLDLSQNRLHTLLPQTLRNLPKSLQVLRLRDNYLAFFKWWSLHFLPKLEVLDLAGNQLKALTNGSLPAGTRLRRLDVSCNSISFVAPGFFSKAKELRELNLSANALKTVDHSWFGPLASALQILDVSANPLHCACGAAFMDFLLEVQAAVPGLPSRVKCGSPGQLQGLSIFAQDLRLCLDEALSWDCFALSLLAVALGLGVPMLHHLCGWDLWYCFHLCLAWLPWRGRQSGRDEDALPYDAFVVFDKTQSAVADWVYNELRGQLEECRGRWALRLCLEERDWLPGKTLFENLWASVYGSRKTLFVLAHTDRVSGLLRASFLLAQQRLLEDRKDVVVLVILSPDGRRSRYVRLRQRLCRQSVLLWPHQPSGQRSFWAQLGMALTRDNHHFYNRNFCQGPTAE
Description: HEK293-Blue-hTLR-9 cells assay. It counts as cell-based. To be noted: HEK293-Blue-hTLR9 cells, ODN2006 stimulation, 20 hrs, SEAP reporter; read-out: HEK/hTLR9 IC50.

A further series concerns the target T2, hERG channel (Homo sapiens, UniProt Q12809).
T2 construct: expressed in transfected cells; host or cells: CHO (Chinese hamster ovary), CHOhERG
The series can be described thus: hERG channel inhibition assay (patch-clamp, CHOhERG cells). The class given is cell-based. To be noted: for IC50 / IC20: CHOhERG cells, whole-cell patch-clamp; for IC20: human, CHO cells stably expressing hERG (CHOhERG); for hERG IC20/TLR7 IC50 / hERG IC20/TLR8 IC50 / hERG IC20/TLR9 IC50: safety ratio. Here is the method: hERG Channel Inhibition Assay:
The hERG K^+ channels were cloned in humans and stably expressed in a CHO (Chinese hamster ovary) cell line. CHOhERG cells were used for patch-clamp (voltage-clamp, whole-cell) experiments. Cells were stimulated by a voltage pattern to activate hERG channels and conduct IKhERG currents (rapid delayed outward rectifier potassium current of the hERG channel). After the cells were stabilized for a few minutes, the amplitude and kinetics of IKhERG were recorded at a stimulation frequency of 0.1 Hz (6 bpm). Thereafter, the test compound was added to the preparation at increasing concentrations. For each concentration, an attempt was made to reach a steady-state effect, usually, this was achieved within 3-10 min at which time the next highest concentration was applied. The amplitude and kinetics of IKhERG are recorded in each concentration of the drug which were compared to the control values (taken as 100%). (references: Redfern W S, Carlsson L, Davis A S, Lynch W G, MacKenzie I, Palethorpe S, Siegl P K, Strang I, Sullivan A T, Wallis R, Camm A J, Hammond T G. 2003; Relationships between preclinical cardiac electrophysiology, clinical QT interval prolongation and torsade de pointes for a broad range of drugs: evidence for a provisional safety margin in drug development. Cardiovasc. Res. 58:32-45, Sanguinetti M C, Tristani-Firouzi M. 2006; hERG potassium channels and cardiac arrhythmia. Nature 440:463-469, Webster R, Leishman D, Walker D. 2002; Towards a drug concentration effect relationship for QT prolongation and torsades de pointes. Curr. Opin. Drug Discov. Devel. 5:116-26).
The calculation of hERG IC20/TLR7/8/9 IC50 below serves as early selectivity index to assess hERG liability.
For orientation: The hERG channel carries a current that helps repolarise heart muscle cells.

Each structure is given as a SMILES string.

T2 sequence (Q12809 whole entry): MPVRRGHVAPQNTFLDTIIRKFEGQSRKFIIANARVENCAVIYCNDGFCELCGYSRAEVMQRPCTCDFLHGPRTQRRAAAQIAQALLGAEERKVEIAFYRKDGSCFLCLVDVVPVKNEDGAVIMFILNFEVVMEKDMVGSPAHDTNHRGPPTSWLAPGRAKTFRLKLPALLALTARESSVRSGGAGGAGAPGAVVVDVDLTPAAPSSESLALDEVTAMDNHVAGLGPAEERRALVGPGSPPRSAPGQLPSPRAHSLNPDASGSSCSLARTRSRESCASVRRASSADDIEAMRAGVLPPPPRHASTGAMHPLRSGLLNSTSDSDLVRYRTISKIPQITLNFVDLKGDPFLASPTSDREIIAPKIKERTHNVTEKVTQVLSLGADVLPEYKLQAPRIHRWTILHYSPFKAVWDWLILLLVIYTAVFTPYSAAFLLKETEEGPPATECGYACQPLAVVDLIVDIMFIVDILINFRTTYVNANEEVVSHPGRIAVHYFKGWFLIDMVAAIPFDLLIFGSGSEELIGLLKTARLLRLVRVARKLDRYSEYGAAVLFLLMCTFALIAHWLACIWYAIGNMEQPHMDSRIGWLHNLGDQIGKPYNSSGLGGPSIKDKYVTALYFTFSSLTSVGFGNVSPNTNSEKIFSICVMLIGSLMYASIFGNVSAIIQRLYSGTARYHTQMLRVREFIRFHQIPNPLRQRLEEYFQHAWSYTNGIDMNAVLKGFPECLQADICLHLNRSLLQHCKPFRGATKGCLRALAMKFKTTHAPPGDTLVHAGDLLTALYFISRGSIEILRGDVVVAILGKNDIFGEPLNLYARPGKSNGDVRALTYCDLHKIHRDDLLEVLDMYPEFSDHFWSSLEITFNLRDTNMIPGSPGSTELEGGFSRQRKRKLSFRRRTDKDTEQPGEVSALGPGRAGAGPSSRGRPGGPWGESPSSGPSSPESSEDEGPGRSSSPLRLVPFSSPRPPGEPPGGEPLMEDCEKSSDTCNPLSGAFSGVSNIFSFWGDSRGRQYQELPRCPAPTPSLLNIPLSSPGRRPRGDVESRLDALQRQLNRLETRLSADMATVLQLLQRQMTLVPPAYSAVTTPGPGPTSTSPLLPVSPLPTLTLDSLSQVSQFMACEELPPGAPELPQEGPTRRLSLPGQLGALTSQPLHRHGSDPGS

In the case of `CO[C@@H]1CN(c2nccc(N3CCN4[C@@H](C3)CN(c3ccc(C#N)c5ncccc35)C[C@H]4C)n2)C[C@H]1N` [Example 36, 5-[(4R,9aR)-8-[2-[(3R,4R)-3-amino-4-methoxy-pyrrolidin-1-yl]pyrimidin-4-yl]-4-methyl-3,4,6,7,9,9a-hexahydro-1H-pyrazino[1,2-a]pyrazin-2-yl]quinoline-8-carbonitrile], on human TLR9, the IC50 was found to be 0.068 µM. In addition, at hERG channel, the IC50 is greater than 20 µM, the 20% effect level (IC20) was put at 5.6 µM, the “hERG IC20/TLR7 IC50” value is given as 431 and the “hERG IC20/TLR8 IC50” value is recorded as 373. The “hERG IC20/TLR9 IC50” value on hERG channel is listed as 82.

As to `[2H]c1ccc2c(N3C[C@@H]4CN(Cc5ccc(N6CC(C)(N)C6)nc5C)CCN4[C@H](C)C3)ccc(C#N)c2n1` [Example 79, 5-[(4R,9aS)-8-[[6-(3-amino-3-methyl-azetidin-1-yl)-2-methyl-3-pyridyl]methyl]-4-methyl-3,4,6,7,9,9a-hexahydro-1H-pyrazino[1,2-a]pyrazin-2-yl]-2-deuterio-quinoline-8-carbonitrile], the IC50 at human TLR9 is 0.046 µM. Also, on hERG channel, the IC50 was greater than 20 µM, the IC20 is greater than 10 µM, the “hERG IC20/TLR7 IC50” value is on record as greater than 526 and the “hERG IC20/TLR8 IC50” value is given as greater than 1666. In addition, the “hERG IC20/TLR9 IC50” value at hERG channel is given as greater than 217.

For the molecule `[2H]c1ccc2c(N3C[C@@H]4CN(c5ncc(N6CC(C)(N)C6)cc5C)CCN4[C@@H](C)C3)ccc(C#N)c2n1` [Example 118, 5-[(4S,9aR)-8-[5-(3-amino-3-methyl-azetidin-1-yl)-3-methyl-2-pyridyl]-4-methyl-3,4,6,7,9,9a-hexahydro-1H-pyrazino[1,2-a]pyrazin-2-yl]-2-deuterio-quinoline-8-carbonitrile], on human TLR9, the IC50 came to 0.148 µM. Further, on hERG channel, the IC50 was greater than 20 µM, the IC20 was found to be 7.66 µM, the “hERG IC20/TLR7 IC50” value turned out to be 1914 and the “hERG IC20/TLR8 IC50” value amounted to 1276. For the same molecule, on hERG channel, the “hERG IC20/TLR9 IC50” value was found to be 51.

With `C[C@@H]1CN(c2ccc(C#N)c3ncccc23)C[C@@H]2CN(c3nccc(N4CCNCC4)n3)CCN21` [Example 30, 5-[(4R,9aR)-4-methyl-8-(4-piperazin-1-ylpyrimidin-2-yl)-3,4,6,7,9,9a-hexahydro-1H-pyrazino[1,2-a]pyrazin-2-yl]quinoline-8-carbonitrile], the IC50 at human TLR9 worked out at 0.072 µM. On hERG channel, the IC50 is greater than 10 µM, the IC20 came out at 4.53 µM, the “hERG IC20/TLR7 IC50” value is 283 and the “hERG IC20/TLR8 IC50” value came to 216. Moreover, the “hERG IC20/TLR9 IC50” value at hERG channel turned out to be 63.

On to `[2H]c1ccc2c(N3C[C@@H]4CN(c5ccc6c(n5)CCNC6)CCN4[C@@H](C)C3)ccc(C#N)c2n1` [Example 121, 5-[(4S,9aR)-4-methyl-8-(5,6,7,8-tetrahydro-1,6-naphthyridin-2-yl)-3,4,6,7,9,9a-hexahydro-1H-pyrazino[1,2-a]pyrazin-2-yl]-2-deuterio-quinoline-8-carbonitrile], for which the IC50 on human TLR9 is 0.085 µM. Also, at hERG channel, the IC50 is greater than 20 µM, the IC20 was greater than 10 µM, the “hERG IC20/TLR7 IC50” value is greater than 2000 and the “hERG IC20/TLR8 IC50” value is listed as greater than 10000. For the same molecule, on hERG channel, the “hERG IC20/TLR9 IC50” value is greater than 117.

Consider `CO[C@@H]1CN(c2ccc(CCN3CCN4[C@@H](C3)CN(c3ccc(C#N)c5ncccc35)C[C@H]4C)cn2)C[C@H]1N` [Example 12, 5-[(4R,9aS)-8-[2-[6-[(3R,4R)-3-amino-4-methoxy-pyrrolidin-1-yl]-3-pyridyl]ethyl]-4-methyl-3,4,6,7,9,9a-hexahydro-1H-pyrazino[1,2-a]pyrazin-2-yl]quinoline-8-carbonitrile], for which the IC50 on human TLR9 came to 0.047 µM. At hERG channel, the IC50 is greater than 20 µM, the IC20 was greater than 10 µM, the “hERG IC20/TLR7 IC50” value is on record as greater than 833 and the “hERG IC20/TLR8 IC50” value was greater than 714. Also, the “hERG IC20/TLR9 IC50” value on hERG channel is given as greater than 213.

Regarding `C[C@@H]1CN(c2ccc(C#N)c3ncccc23)C[C@@H]2CN(c3nccc(N4CC(N)C4)n3)CCN21` [Example 39, 5-[(4R,9aR)-8-[4-(3-aminoazetidin-1-yl)pyrimidin-2-yl]-4-methyl-3,4,6,7,9,9a-hexahydro-1H-pyrazino[1,2-a]pyrazin-2-yl]quinoline-8-carbonitrile], the IC50 on human TLR9 was 0.095 µM. At hERG channel, the IC50 is greater than 10 µM, the IC20 is 5 µM, the “hERG IC20/TLR7 IC50” value turned out to be 238 and the “hERG IC20/TLR8 IC50” value is recorded as 294. Further, at hERG channel, the “hERG IC20/TLR9 IC50” value is listed as 53.

Turning to `CO[C@@H]1CN(c2nc(C)cc(N3CCN4[C@@H](C3)CN(c3ccc(C#N)c5ncccc35)C[C@H]4C)n2)C[C@H]1N` [Example 45, 5-[(4R,9aR)-8-[2-[(3R,4R)-3-amino-4-methoxy-pyrrolidin-1-yl]-6-methyl-pyrimidin-4-yl]-4-methyl-3,4,6,7,9,9a-hexahydro-1H-pyrazino[1,2-a]pyrazin-2-yl]quinoline-8-carbonitrile], the IC50 at human TLR9 is 0.081 µM. At hERG channel, the IC50 is greater than 20 µM, the IC20 is greater than 10 µM, the “hERG IC20/TLR7 IC50” value is on record as greater than 556 and the “hERG IC20/TLR8 IC50” value is recorded as greater than 357. Also, at hERG channel, the “hERG IC20/TLR9 IC50” value was greater than 124.

`C[C@@H]1CN(c2ccc(C#N)c3ncccc23)C[C@@H]2CN(c3ccnc(N4CC(N)C4)c3)CCN21` [Example 41, 5-[(4R,9aS)-8-[2-(3-aminoazetidin-1-yl)-4-pyridyl]-4-methyl-3,4,6,7,9,9a-hexahydro-1H-pyrazino[1,2-a]pyrazin-2-yl]quinoline-8-carbonitrile]: the IC50 at human TLR9 was found to be 0.045 µM. At hERG channel, the IC50 is greater than 20 µM, it took 9.64 µM to reach the 20% level (IC20), the “hERG IC20/TLR7 IC50” value turned out to be 275 and the “hERG IC20/TLR8 IC50” value is reported as 1377. On hERG channel, the “hERG IC20/TLR9 IC50” value is recorded as 214.

As for `C[C@@H]1CN(c2ccc(C#N)c3ncccc23)C[C@@H]2CN(Cc3ccc4c(c3)CNCC4)CCN21` [Example 5, 5-[(4R,9aS)-4-methyl-8-(1,2,3,4-tetrahydroisoquinolin-7-ylmethyl)-3,4,6,7,9,9a-hexahydro-1H-pyrazino[1,2-a]pyrazin-2-yl]quinoline-8-carbonitrile], the IC50 at human TLR9 is less than 0.032 µM. Also, at hERG channel, the IC50 was greater than 20 µM, the IC20 was greater than 10 µM, the “hERG IC20/TLR7 IC50” value is reported as greater than 588 and the “hERG IC20/TLR8 IC50” value is greater than 833. For the same molecule, the “hERG IC20/TLR9 IC50” value on hERG channel is recorded as greater than 313.

Regarding `[2H]c1ccc2c(N3C[C@@H]4CN(c5ccc([C@@H]6CNCCO6)cc5)CCN4[C@@H](C)C3)ccc(C#N)c2n1` [Example 106, 5-[(4S,9aS)-4-methyl-8-[4-[(2R)-morpholin-2-yl]phenyl]-3,4,6,7,9,9a-hexahydro-1H-pyrazino[1,2-a]pyrazin-2-yl]-2-deuterio-quinoline-8-carbonitrile], the IC50 on human TLR9 worked out at 0.128 µM. Also, at hERG channel, the IC50 is greater than 20 µM, the IC20 was greater than 10 µM, the “hERG IC20/TLR7 IC50” value was greater than 5000 and the “hERG IC20/TLR8 IC50” value was greater than 2500. The “hERG IC20/TLR9 IC50” value at hERG channel is given as greater than 78.

Usually IC20 stands for the point of the concentration-response curve where the effect stands at 20%. Read a high IC20 as weaker potency.
